Experimental data from ChEMBL document CHEMBL1201862, “PubChem BioAssay data set” (2004).
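Exposure lasted 48 hours, with cells grown in 96-well plates and compounds tested at five concentrations. GI50: concentration for 50% inhibition of growth.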 Calls of active or inactive are those of the source. No stated cut-off is given here; in the data, active = GI50 up to about 1.1 µM and inactive = higher.

Assays:
Assay in all cases: DTP human tumour cell line panel, 48 h
[1] = test system: KM12
[2] = test system: HCT-15
[3] = test system: RPMI-8226
[4] = test system: NCI-H522
[5] = test system: MDA-MB-435
[6] = test system: COLO 205
[7] = test system: HOP-62
[8] = test system: NCI-H460
[9] = test system: SF-539
[10] = test system: OVCAR-5
[11] = test system: SN12C
[12] = test system: SNB-19
[13] = test system: HCT-116
[14] = test system: 786-0
[15] = test system: U-251
[16] = test system: SK-MEL-2
[17] = test system: NCI/ADR-RES
[18] = test system: NCI-H23
[19] = test system: MDA-N
[20] = test system: SF-268

`c1ccc(-c2cc(-c3cc(-c4ccccc4)no3)on2)cc1` was tested, and the GI50 [1] was > 100 µM (inactive), the GI50 [2] was greater than 100 µM and the GI50 [3] was > 100 µM (inactive). The GI50 [4] was > 100 µM (inactive), the GI50 [5] was > 100 µM (inactive) and the GI50 [6] was 45.6 µM (inactive). The GI50 [7] was 72.1 µM (inactive), the GI50 [8] was 45.1 µM (inactive) and the GI50 [9] was 15.1 µM (inactive). For the same compound, the GI50 [10] was > 100 µM (inactive), the GI50 [11] was 42.5 µM (inactive) and the GI50 [12] was 49.3 µM (inactive). The GI50 [13] was 55.8 µM (inactive), the GI50 [14] was 72.1 µM (inactive) and the GI50 [15] was 29.2 µM (inactive). The GI50 [16] was > 100 µM (inactive), the GI50 [17] was 29.7 µM (inactive) and the GI50 [18] was 49.1 µM (inactive). The GI50 [19] was > 100 µM (inactive) and the GI50 [20] was 66.1 µM (inactive).

With `CCN1C=C/C(=C\C=C\c2cc[n+](CC)c3ccccc23)c2ccccc21` the GI50 [1] was 3.42 µM (inactive), the GI50 [2] was 16.4 µM and the GI50 [3] was 3.07 µM (inactive). The GI50 [4] was 7.43 µM (inactive), the GI50 [5] was 4.21 µM (inactive) and the GI50 [6] was 3.72 µM (inactive). For the same compound, the GI50 [7] was 3.24 µM (inactive), the GI50 [8] was 3.4 µM (inactive) and the GI50 [9] was 3.39 µM (inactive). For the same compound, the GI50 [10] was 4.12 µM (inactive), the GI50 [11] was 3.63 µM (inactive) and the GI50 [12] was 4.17 µM (inactive). The GI50 [13] was 2.75 µM (inactive), the GI50 [14] was 4.9 µM (inactive) and the GI50 [15] was 3.8 µM (inactive). The GI50 [16] was 7.62 µM (inactive), the GI50 [17] was 64.4 µM (inactive) and the GI50 [18] was 2.87 µM (inactive). For the same compound, the GI50 [19] was 7.01 µM (inactive) and the GI50 [20] was 4.99 µM (inactive).

In the case of `C(=NCCN1CCOCC1)=NC1CCCCC1`, the GI50 [1] is reported as > 100 µM (inactive), the GI50 [2] is reported as greater than 100 µM and the GI50 [3] is reported as > 100 µM (inactive). For the same compound, the GI50 [4] was > 100 µM (inactive), the GI50 [5] was > 100 µM (inactive) and the GI50 [6] was > 100 µM (inactive). The GI50 [7] was > 100 µM (inactive), the GI50 [8] was > 100 µM (inactive) and the GI50 [9] was > 100 µM (inactive). For the same compound, the GI50 [10] was > 100 µM (inactive), the GI50 [11] was > 100 µM (inactive) and the GI50 [12] was > 100 µM (inactive). The GI50 [13] was > 100 µM (inactive), the GI50 [14] was > 100 µM (inactive) and the GI50 [15] was > 100 µM (inactive). The GI50 [16] was > 100 µM (inactive), the GI50 [17] was > 100 µM (inactive) and the GI50 [18] was > 100 µM (inactive). For the same compound, the GI50 [19] was > 100 µM (inactive) and the GI50 [20] was > 100 µM (inactive).

`COc1cc(N(CCC#N)CCC#N)ccc1C(=N/NC(=O)c1cc(Br)ccc1O)/N=N/c1ccccc1` was tested, and the GI50 [1] was 28.2 µM (inactive), the GI50 [2] was 24.7 µM and the GI50 [3] was 17.1 µM (inactive). The GI50 [4] was 23.4 µM (inactive), the GI50 [5] was 36.6 µM (inactive) and the GI50 [6] was 16.3 µM (inactive). For the same compound, the GI50 [7] was 24 µM (inactive), the GI50 [8] was 22.6 µM (inactive) and the GI50 [9] was 34.2 µM (inactive). The GI50 [10] was 38.1 µM (inactive), the GI50 [11] was 31.8 µM (inactive) and the GI50 [12] was 32.1 µM (inactive). The GI50 [13] was 21.5 µM (inactive), the GI50 [14] was 29.1 µM (inactive) and the GI50 [15] was 32.1 µM (inactive). The GI50 [16] was 26.7 µM (inactive), the GI50 [17] was 32.5 µM (inactive) and the GI50 [18] was 21.4 µM (inactive). The GI50 [19] was 30.1 µM (inactive) and the GI50 [20] was 28.5 µM (inactive).

With `O=C(NCCCNCCCNC(=O)c1cc(-c2ccccc2)nc2ccccc12)c1cc(-c2ccccc2)nc2ccccc12` the GI50 [1] was 1.99 µM (inactive), the GI50 [2] was 2.6 µM and the GI50 [3] was 1.72 µM (inactive). The GI50 [4] was 2.01 µM (inactive), the GI50 [5] was 1.64 µM (inactive) and the GI50 [6] was 1.9 µM (inactive). The GI50 [7] was 1.11 µM (active), the GI50 [8] was 1.75 µM (inactive) and the GI50 [9] was 2.47 µM (inactive). For the same compound, the GI50 [10] was 1.87 µM (inactive), the GI50 [11] was 1.84 µM (inactive) and the GI50 [12] was 1.72 µM (inactive). For the same compound, the GI50 [13] was 1.73 µM (inactive), the GI50 [14] was 1.74 µM (inactive) and the GI50 [15] was 1.69 µM (inactive). The GI50 [16] was 2 µM (inactive), the GI50 [17] was 2.39 µM (inactive) and the GI50 [18] was 1.86 µM (inactive). For the same compound, the GI50 [19] was 1.89 µM (inactive) and the GI50 [20] was 1.83 µM (inactive).

With `Cc1ccc(S(=O)(=O)N2CCNCCN(S(=O)(=O)c3ccc(C)cc3)CCN(S(=O)(=O)c3ccc(C)cc3)CC2)cc1` the GI50 [1] was > 100 µM (inactive), the GI50 [2] was greater than 100 µM and the GI50 [3] was > 100 µM (inactive). The GI50 [4] was > 100 µM (inactive), the GI50 [5] was > 100 µM (inactive) and the GI50 [6] was > 100 µM (inactive). For the same compound, the GI50 [7] was > 100 µM (inactive), the GI50 [8] was > 100 µM (inactive) and the GI50 [9] was > 100 µM (inactive). For the same compound, the GI50 [10] was > 100 µM (inactive), the GI50 [11] was > 100 µM (inactive) and the GI50 [12] was > 100 µM (inactive). For the same compound, the GI50 [13] was > 100 µM (inactive), the GI50 [14] was > 100 µM (inactive) and the GI50 [15] was > 100 µM (inactive). For the same compound, the GI50 [16] was > 100 µM (inactive), the GI50 [17] was > 100 µM (inactive) and the GI50 [18] was > 100 µM (inactive). For the same compound, the GI50 [19] was > 100 µM (inactive) and the GI50 [20] was > 100 µM (inactive).
